Test results: patent US20020025918A1, “Methods of using helical peptides in plants” (priority 1987, published 2002)
Values after ≈ are worked out from the molar mass of the structure shown. Like-named read-outs stand apart in the source and are kept apart here. Residues, ends and D or L forms follow the SMILES beside them.

Experiments:
[1] = tested on: E. coli; assay: MBC and MIC susceptibility test; format: cell-based; settings: Table III
[2] = tested on: B-16 myeloma cells; assay: B-16 cell viability, trypan blue exclusion; format: cell-based; settings: for % Cell Viability: 100 μM peptide, one hour
Description: (§1) B-16 myeloma cells and normal 3T3 […] fibroblasts were either permitted to attach to the test plate, or treated with trypsin to free the cells from the plastic dish prior to treatment. Cells were then treated with 100 μM lytic peptide for one hour as described above, and cell viability was then determined by trypan blue exclusion.

[3] = tested on: Human mononuclear leukocytes; assay: 3H-thymidine uptake in WBC (proliferation); format: cell-based
Description: Human mononuclear leukocytes were isolated from whole blood in the following manner. Blood was collected in vacutainer tubes containing EDTA, and was then diluted with an equal valume of calcium and magnesium-free PBS and layered over Histopaque resin (GIBCO). The tubes were centrifuged for 30 minutes at 25° C. and 450× g. The plasma and platelets above the banded layer of cells in the resulting gradient were removed and discarded. The banded white blood cells were removed to fresh test tubes, washed 3 times with PBS, and resuspended in RPMI medium containing 10% fetal bovine serum (FBS), mercaptoethanol, and penicillin and streptomycin as antibiotics. The cells were then counted and resuspended to a final concentration of 3×10^6 cells/ml.
To each well of a 96 well flat-bottomed microtiter plate was aded 100 μl of cells (3×10^5 cells). Treatment groups were set in quadruplicate samples. The appropriate concentration of test peptide and/or the mitogen hytohemaglutinate (PHA), was added in a total volume of 100 μl of medium to the test wells. The plates were then incubated at 37° C. and 5% CO2 for a duration of 72 hours. At the end of the incubation period, 1 μCi of 3H-thymidine in 1 μl TRIS-HCI, PH8 was added to each well, and the plates incubated an additional 18 hours.
Cellular DNA was harvested onto glass fiber filters using a semi-automatic cell harvester. The glass filters were then placed into vials containing scintillation fluid, and the samples were counted in a scintillation counter. The uptake of 3H-thymidine is an indiator of cell proliferation, thus the higher the number of counts in the sample, the greater the proliferative activity of the cells. The results in Table XI indicate that low dose of the synthetic peptides of this invention stimulate cell growth.

[4] = tested on: E. coli; assay: Synergy of lytic peptide with antibiotics
[5] = tested on: S. auerus; assay: Synergy of lytic peptide with antibiotics
[6] = 3T3 fibroblast viability, trypan blue exclusion; format: cell-based; settings: human, 100 μM peptide, one hour, read-out: % Cell Viability
Description: as §1

[7] = tested on: P. aeruginosa; assay: MBC and MIC susceptibility test; format: cell-based; settings: Table III, P. aeuriginosa (−)
[8] = Role of cytoskeletal structure in susceptibility to lysis, FDD cell viability; settings: donkey, primary fetal donkey dermal cells (FDD), % Viability of Treated DD Cells, 100 μM peptide 15 minutes
[9] = tested on: EL-4 lymphoma cells; assay: EL-4 cell killing, trypan blue exclusion; settings: one hour, 37° C.
[10] = tested on: S. aureus; assay: MBC and MIC susceptibility test; format: cell-based; settings: Table III, S. aureus (+)
[11] = Manitou-1 0.01 μM + Streptomycin 0.5 μM
[12] = Manitou-1 0.01 μM + Streptomycin 5.0 μM
[13] = Manitou-1 0.01 μM + Tetracycline 0.5 μM
[14] = Manitou-1 0.01 μM + Tetracycline 5.0 μM
[15] = Manitou-1 0.01 μM, no antibiotic
[16] = Manitou-1 0.10 μM + Streptomycin 0.5 μM
[17] = Manitou-1 0.10 μM + Streptomycin 5.0 μM
[18] = Manitou-1 0.10 μM + Tetracycline 0.5 μM
[19] = Manitou-1 0.10 μM + Tetracycline 5.0 μM
[20] = Manitou-1 0.10 μM, no antibiotic
[21] = Manitou-1 1.0 μM + Streptomycin 0.5 μM
[22] = Manitou-1 1.0 μM + Streptomycin 5.0 μM
[23] = Manitou-1 1.0 μM + Tetracycline 0.5 μM
[24] = Manitou-1 1.0 μM + Tetracycline 5.0 μM
[25] = Manitou-1 1.0 μM, no antibiotic

CSCC[C@H](NC(=O)[C@H](CCCNC(=N)N)NC(=O)[C@H](CCCCN)NC(=O)[C@@H](N)CCSC)C(=O)N[C@H](C(=O)N[C@@H](CO)C(=O)N[C@@H](Cc1c[nH]c2ccccc12)C(=O)N[C@@H](CO)C(=O)N[C@@H](Cc1ccccc1)C(=O)N[C@@H](CCCCN)C(=O)N[C@@H](CCCCN)C(=O)N[C@@H](CC(C)C)C(=O)N[C@@H](CCCCN)C(=O)N[C@H](C(=O)N[C@@H](CCSC)C(=O)N[C@@H](CCCCN)C(=O)N[C@@H](CCCCN)C(=O)N[C@@H](CC(C)C)C(=O)N[C@@H](CC(C)C)C(=O)N[C@@H](CC(C)C)C(=O)N[C@@H](CC(C)C)C(=O)N[C@@H](CC(C)C)C(=O)N[C@@H](CC(C)C)C(=O)N[C@@H](CS)C(=O)N[C@H](C(=O)N[C@@H](Cc1ccccc1)C(=O)N[C@@H](CC(C)C)C(=O)N[C@H](C(=O)N[C@@H](CCCCN)C(=O)N[C@@H](CO)C(N)=O)C(C)C)C(C)C)[C@@H](C)O)C(C)C [Manitou-1] (H-MKRMVSWSFKKLKTMKKLLLLLLCVFLVKS-NH2)
MBC [1]: 8 µM (≈ 28.9 µg/mL) | % Cell Viability ([2]; B-16 Monolayer): 19% | % Cell Viability ([2]; B-16 Suspension (trypsinized)): 0% | selective killing of cancer cells in monolayer culture (in words) ([2]; B-16 versus 3T3 attached in monolayer): more effective than LSB-37 in selectively killing cancer cells | 3H-Thymidine Uptake in WBC, % of Control ([3]; peptide 10 μM, PHA 0 mg): 239% | 3H-Thymidine Uptake in WBC, % of Control ([3]; peptide 10 μM, PHA 0.5 mg): 191% | 3H-Thymidine Uptake in WBC, % of Control ([3]; peptide 10 μM, PHA 5.0 mg): 125% | 3H-Thymidine Uptake in WBC, % of Control ([3]; peptide 25 μM, PHA 0 mg): 325% | 3H-Thymidine Uptake in WBC, % of Control ([3]; peptide 25 μM, PHA 0.5 mg): 153% | 3H-Thymidine Uptake in WBC, % of Control ([3]; peptide 25 μM, PHA 5.0 mg): 143% | 3H-Thymidine Uptake in WBC, % of Control ([3]; peptide 50 μM, PHA 0 mg): 62% | 3H-Thymidine Uptake in WBC, % of Control ([3]; peptide 50 μM, PHA 0.5 mg): 61% | 3H-Thymidine Uptake in WBC, % of Control ([3]; peptide 50 μM, PHA 5.0 mg): 63% | 3H-Thymidine Uptake in WBC, % of Control ([3]; peptide 100 μM, PHA 0 mg): 39% | 3H-Thymidine Uptake in WBC, % of Control ([3]; peptide 100 μM, PHA 0.5 mg): 8% | 3H-Thymidine Uptake in WBC, % of Control ([3]; peptide 100 μM, PHA 5.0 mg): 0% | % Cell Death In E. coli [4, 11]: 99.9% | % Cell Death In E. coli [4, 12]: 58% | % Cell Death In E. coli [4, 13]: 68% | % Cell Death In E. coli [4, 14]: 88% | % Cell Death In E. coli [4, 15]: 0% | % Cell Death In E. coli [4, 16]: 68% | % Cell Death In E. coli [4, 17]: 99.9% | % Cell Death In E. coli [4, 18]: 0% | % Cell Death In E. coli [4, 19]: 58% | % Cell Death In E. coli [4, 20]: 0% | % Cell Death In E. coli [4, 21]: 0% | % Cell Death In E. coli [4, 22]: 99.9% | % Cell Death In E. coli [4, 23]: 0% | % Cell Death In E. coli [4, 24]: 47% | % Cell Death In E. coli [4, 25]: 0% | interaction with streptomycin in E. Coli (in words) ([4]; Manitou-1 with streptomycin): synergistic action | % Cell Death In S. auerus [5, 11]: 0% | % Cell Death In S. auerus [5, 12]: 87% | % Cell Death In S. auerus [5, 13]: 0% | % Cell Death In S. auerus [5, 14]: 35% | % Cell Death In S. auerus [5, 15]: 0% | % Cell Death In S. auerus [5, 16]: 0% | % Cell Death In S. auerus [5, 17]: 95% | % Cell Death In S. auerus [5, 18]: 0% | % Cell Death In S. auerus [5, 19]: 35% | % Cell Death In S. auerus [5, 20]: 0% | % Cell Death In S. auerus [5, 21]: 0% | % Cell Death In S. auerus [5, 22]: 86% | % Cell Death In S. auerus [5, 23]: 0% | % Cell Death In S. auerus [5, 24]: 35% | % Cell Death In S. auerus [5, 25]: 0% | viability at 1 h, 100 μM ([6]; normal 3T3 human fibroblasts, 3T3 Suspension (trypsinized)): 5% | viability at 1 h, 100 μM ([6]; 3T3 Monolayer): 85% | MBC [7]: 16 µM (≈ 57.8 µg/mL) | viability at 15 minutes, 100 μM ([8]; Cold-treated (4° C.)): 8% | viability at 15 minutes, 100 μM ([8]; Warm-treated (37° C.)): 78% | viability at 15 minutes, 100 μM ([8]; with colchicine 0.1 μg/ml (cytoskeletal inhibitor), Colchicine-treated (0.1 μg/ml)): 30% | viability at 15 minutes, 100 μM ([8]; with cytochalasin D 5 μg/ml (cytoskeletal inhibitor), Cytochalasin D-treated (5 μg/ml)): 23% | % EL-4 Cells Killed ([9]; 10 μM peptide): 5% | % EL-4 Cells Killed ([9]; 25 μM peptide): 28% | % EL-4 Cells Killed ([9]; 50 μM peptide): 78% | % EL-4 Cells Killed ([9]; 100 μM peptide): 100% | MBC [10]: 32 µM (≈ 116 µg/mL)
